Source: patent US11109593B2, “Isoxazolin-5-one derivative and herbicide containing same as active ingredient” (HOKKO CHEMICAL INDUSTRY CO., LTD., priority 2017, dated 2021)

tested on: Scirpus juncoides; assay: Test Example 2: herbicidal effect test by treatment during growing period in paddy rice cultivation (seven days after seeding); assay type: in vivo; settings: 120 g/10a active ingredient, assessed 14 days after treatment, dry weight vs untreated area
Procedure, shortened: (§1)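 Sow 30 seeds per species (0–1 cm) into puddled, fertilized paddy soil; keep flooded ~3 cm in greenhouse. Day 7 after seeding: drop water-diluted emulsion, 120 g a.i./10 ares. Harvest 14 d post-treatment; compare dry weight with untreated pots (duplicate).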

SMILES | Herbicidal rate (%) Scirpus juncoides [%]
CCN(CC)C(=O)n1oc(=O)c(Cc2ccccc2N(C(=O)OCC(C)C)S(=O)(=O)C(F)(F)F)c1C [Compound 1-679] | 40
Cc1c(Cc2ccccc2NS(=O)(=O)C(F)(F)F)c(=O)on1Cc1ccccc1F [Compound 1-181] | 90
Cc1c(Cc2ccccc2NS(=O)(=O)C(F)(F)F)c(=O)on1C(C)c1ccccc1Cl (stereo not shown) [Compound 1-205] | 80
CCC(CC)Cn1oc(=O)c(Cc2ccccc2N(CC)S(=O)(=O)C(F)(F)F)c1C [Compound 1-264] | 90
Cc1c(Cc2ccccc2N(S(=O)(=O)C(F)(F)F)S(=O)(=O)C(F)(F)F)c(=O)on1Cc1ccc(Cl)cc1 [Compound 1-1015] | 90

tested on: Echinochloa crus-galli; assay: as above; assay type: in vivo; settings: 120 g/10a active ingredient, assessed 14 days after treatment, dry weight vs untreated area
Procedure, shortened: as §1

SMILES | Herbicidal rate (%) Echinochloa crus-galli [%]
CCN(CC)C(=O)n1oc(=O)c(Cc2ccccc2N(C(=O)OCC(C)C)S(=O)(=O)C(F)(F)F)c1C [Compound 1-679] | 50
Cc1c(Cc2ccccc2NS(=O)(=O)C(F)(F)F)c(=O)on1Cc1ccccc1F [Compound 1-181] | 50
Cc1c(Cc2ccccc2NS(=O)(=O)C(F)(F)F)c(=O)on1C(C)c1ccccc1Cl (stereo not shown) [Compound 1-205] | 50
CCC(CC)Cn1oc(=O)c(Cc2ccccc2N(CC)S(=O)(=O)C(F)(F)F)c1C [Compound 1-264] | 80
Cc1c(Cc2ccccc2N(S(=O)(=O)C(F)(F)F)S(=O)(=O)C(F)(F)F)c(=O)on1Cc1ccc(Cl)cc1 [Compound 1-1015] | 70

tested on: broad leaf weeds (Lindernia pyxidaria and Monochoria vaginalis); assay: as above; assay type: in vivo; settings: Lindernia pyxidaria, 120 g/10a active ingredient, assessed 14 days after treatment, dry weight vs untreated area
Procedure, shortened: as §1

SMILES | Herbicidal rate (%) Lindernia pyxidaria [%]
CCN(CC)C(=O)n1oc(=O)c(Cc2ccccc2N(C(=O)OCC(C)C)S(=O)(=O)C(F)(F)F)c1C [Compound 1-679] | 40
Cc1c(Cc2ccccc2NS(=O)(=O)C(F)(F)F)c(=O)on1Cc1ccccc1F [Compound 1-181] | 80
Cc1c(Cc2ccccc2NS(=O)(=O)C(F)(F)F)c(=O)on1C(C)c1ccccc1Cl (stereo not shown) [Compound 1-205] | 90
CCC(CC)Cn1oc(=O)c(Cc2ccccc2N(CC)S(=O)(=O)C(F)(F)F)c1C [Compound 1-264] | 50
Cc1c(Cc2ccccc2N(S(=O)(=O)C(F)(F)F)S(=O)(=O)C(F)(F)F)c(=O)on1Cc1ccc(Cl)cc1 [Compound 1-1015] | 90

same assay, conditions: Monochoria vaginalis, 120 g/10a active ingredient, assessed 14 days after treatment, dry weight vs untreated area

SMILES | Herbicidal rate (%) Monochoria vaginalis [%]
CCN(CC)C(=O)n1oc(=O)c(Cc2ccccc2N(C(=O)OCC(C)C)S(=O)(=O)C(F)(F)F)c1C [Compound 1-679] | 40
Cc1c(Cc2ccccc2NS(=O)(=O)C(F)(F)F)c(=O)on1Cc1ccccc1F [Compound 1-181] | 90
Cc1c(Cc2ccccc2NS(=O)(=O)C(F)(F)F)c(=O)on1C(C)c1ccccc1Cl (stereo not shown) [Compound 1-205] | 90
CCC(CC)Cn1oc(=O)c(Cc2ccccc2N(CC)S(=O)(=O)C(F)(F)F)c1C [Compound 1-264] | 80
Cc1c(Cc2ccccc2N(S(=O)(=O)C(F)(F)F)S(=O)(=O)C(F)(F)F)c(=O)on1Cc1ccc(Cl)cc1 [Compound 1-1015] | 90

tested on: Scirpus juncoides; assay: Test Example 1: herbicidal effect test by treatment of rice paddy soil (immediately after seeding); assay type: in vivo; settings: 120 g/10a active ingredient, dry weight vs untreated area, 14 days after treatment
Procedure, shortened: (§2)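 Application occurs immediately after seeding, with diluted emulsion added to paddy water (about 3 cm deep) over puddled, fertilized soil at 120 g active ingredient per 10 ares. Herbicidal rate is calculated from mean dry weight against untreated controls 14 days later.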

SMILES | Herbicidal rate (%) Scirpus juncoides [%]
CCN(CC)C(=O)n1oc(=O)c(Cc2ccccc2N(C(=O)OCC(C)C)S(=O)(=O)C(F)(F)F)c1C [Compound 1-679] | 50
Cc1c(Cc2ccccc2NS(=O)(=O)C(F)(F)F)c(=O)on1Cc1ccccc1F [Compound 1-181] | 90
Cc1c(Cc2ccccc2NS(=O)(=O)C(F)(F)F)c(=O)on1C(C)c1ccccc1Cl (stereo not shown) [Compound 1-205] | 90
CCC(CC)Cn1oc(=O)c(Cc2ccccc2N(CC)S(=O)(=O)C(F)(F)F)c1C [Compound 1-264] | 100
Cc1c(Cc2ccccc2N(S(=O)(=O)C(F)(F)F)S(=O)(=O)C(F)(F)F)c(=O)on1Cc1ccc(Cl)cc1 [Compound 1-1015] | 90

tested on: Echinochloa crus-galli; assay: as above; assay type: in vivo; settings: 120 g/10a active ingredient, dry weight vs untreated area, 14 days after treatment
Procedure, shortened: as §2

SMILES | Herbicidal rate (%) Echinochloa crus-galli [%]
CCN(CC)C(=O)n1oc(=O)c(Cc2ccccc2N(C(=O)OCC(C)C)S(=O)(=O)C(F)(F)F)c1C [Compound 1-679] | 60
Cc1c(Cc2ccccc2NS(=O)(=O)C(F)(F)F)c(=O)on1Cc1ccccc1F [Compound 1-181] | 90
Cc1c(Cc2ccccc2NS(=O)(=O)C(F)(F)F)c(=O)on1C(C)c1ccccc1Cl (stereo not shown) [Compound 1-205] | 100
CCC(CC)Cn1oc(=O)c(Cc2ccccc2N(CC)S(=O)(=O)C(F)(F)F)c1C [Compound 1-264] | 90
Cc1c(Cc2ccccc2N(S(=O)(=O)C(F)(F)F)S(=O)(=O)C(F)(F)F)c(=O)on1Cc1ccc(Cl)cc1 [Compound 1-1015] | 90

tested on: broad leaf weeds (Lindernia pyxidaria and Monochoria vaginalis); assay: as above; assay type: in vivo; settings: Lindernia pyxidaria, 120 g/10a active ingredient, dry weight vs untreated area, 14 days after treatment
Procedure, shortened: as §2

SMILES | Herbicidal rate (%) Lindernia pyxidaria [%]
CCN(CC)C(=O)n1oc(=O)c(Cc2ccccc2N(C(=O)OCC(C)C)S(=O)(=O)C(F)(F)F)c1C [Compound 1-679] | 50
Cc1c(Cc2ccccc2NS(=O)(=O)C(F)(F)F)c(=O)on1Cc1ccccc1F [Compound 1-181] | 100
Cc1c(Cc2ccccc2NS(=O)(=O)C(F)(F)F)c(=O)on1C(C)c1ccccc1Cl (stereo not shown) [Compound 1-205] | 100
CCC(CC)Cn1oc(=O)c(Cc2ccccc2N(CC)S(=O)(=O)C(F)(F)F)c1C [Compound 1-264] | 80
Cc1c(Cc2ccccc2N(S(=O)(=O)C(F)(F)F)S(=O)(=O)C(F)(F)F)c(=O)on1Cc1ccc(Cl)cc1 [Compound 1-1015] | 100

same assay, conditions: Monochoria vaginalis, 120 g/10a active ingredient, dry weight vs untreated area, 14 days after treatment

SMILES | Herbicidal rate (%) Monochoria vaginalis [%]
CCN(CC)C(=O)n1oc(=O)c(Cc2ccccc2N(C(=O)OCC(C)C)S(=O)(=O)C(F)(F)F)c1C [Compound 1-679] | 50
Cc1c(Cc2ccccc2NS(=O)(=O)C(F)(F)F)c(=O)on1Cc1ccccc1F [Compound 1-181] | 90
Cc1c(Cc2ccccc2NS(=O)(=O)C(F)(F)F)c(=O)on1C(C)c1ccccc1Cl (stereo not shown) [Compound 1-205] | 100
CCC(CC)Cn1oc(=O)c(Cc2ccccc2N(CC)S(=O)(=O)C(F)(F)F)c1C [Compound 1-264] | 90
Cc1c(Cc2ccccc2N(S(=O)(=O)C(F)(F)F)S(=O)(=O)C(F)(F)F)c(=O)on1Cc1ccc(Cl)cc1 [Compound 1-1015] | 90
